Measured values reported in ChEMBL document CHEMBL1201862, “PubChem BioAssay data set” (2004).
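How tested: cells in 96-well plates exposed to compound for 48 hours at five concentrations. At the GI50, growth is halved.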 The source made the active and inactive calls. Cut-off read from the data, not from the text of the source: active = GI50 up to about 1.1 µM and inactive = higher.

Tests used:
Test in all cases: growth of human tumour cells (NCI), 48 h
[1] = test system: A498
[2] = test system: CAKI-1
[3] = test system: CCRF-CEM
[4] = test system: COLO 205
[5] = test system: HOP-92
[6] = test system: IGROV-1
[7] = test system: KM12
[8] = test system: M14
[9] = test system: OVCAR-3
[10] = test system: SF-268
[11] = test system: SF-295
[12] = test system: SK-MEL-2
[13] = test system: SK-MEL-5
[14] = test system: SK-OV-3
[15] = test system: SR
[16] = test system: Hs-578T
[17] = test system: PC-3
[18] = test system: T47D
[19] = test system: BT-549

Measured: GI50

Cc1nc2cc(Nc3ccccc3C(=O)O)ccc2s1
inactive: [1] > 100 µM | [2] > 100 µM | [3] > 100 µM | [4] > 100 µM | [5] > 100 µM | [6] > 100 µM | [7] > 100 µM | [8] > 100 µM | [9] > 100 µM | [10] > 100 µM | [11] > 100 µM | [12] > 100 µM | [13] > 100 µM | [14] > 100 µM | [15] > 100 µM

CC(C)(C)C1=NN=C2c3ccccc3C(=O)C21 (stereo unspecified)
inactive: [1] 21.3 µM | [2] 26.4 µM | [3] 63.2 µM | [4] 37.8 µM | [5] 15.5 µM | [16] 20.7 µM | [6] 56.1 µM | [7] 18.9 µM | [8] 76.6 µM | [9] 37.6 µM | [17] 35.6 µM | [10] 58.9 µM | [11] 39.1 µM | [12] 39.8 µM | [13] 23 µM | [15] 24.8 µM | [18] > 100 µM

CC(C)(Br)C(Br)CCC1(C(Br)CBr)CO1 (stereo unspecified)
inactive: [1] > 10 µM | [19] > 10 µM | [2] > 10 µM | [3] > 10 µM | [4] > 10 µM | [5] > 10 µM | [6] > 10 µM | [7] > 10 µM | [8] > 10 µM | [9] > 10 µM | [17] > 10 µM | [10] > 10 µM | [11] > 10 µM | [13] > 10 µM | [14] > 10 µM | [15] > 10 µM | [18] > 10 µM

O=C1Nc2ccc(Cl)c(I)c2C1=O
inactive: [2] 21.6 µM | [3] 15.4 µM | [4] 18.7 µM | [6] 17.1 µM | [7] 26.5 µM | [8] 17 µM | [9] 21.1 µM | [10] 17.4 µM | [11] 17.8 µM | [12] 18.7 µM | [13] 19.2 µM | [14] 17.9 µM | [15] 22 µM

CCN=C=NCCCN(C)C
inactive: [1] > 100 µM | [19] > 100 µM | [2] > 100 µM | [3] > 100 µM | [4] > 100 µM | [5] > 100 µM | [16] > 100 µM | [6] > 100 µM | [7] > 100 µM | [8] > 100 µM | [9] > 100 µM | [17] > 100 µM | [10] > 100 µM | [11] > 100 µM | [12] > 100 µM | [13] > 100 µM | [14] > 100 µM | [15] > 100 µM

CC(=O)OC[C@@]12CC[C@H]3C(C)(C)CCC[C@]3(C)[C@H]1C[C@@H](C1=CC(=O)O[C@H]1O)O2
active: [15] 0.625 µM
inactive: [2] 2.64 µM | [3] 1.24 µM | [4] 3.81 µM | [16] 4.9 µM | [6] 2.55 µM | [7] 6.75 µM | [8] 2.45 µM | [9] 2.1 µM | [17] 5.43 µM | [10] 10.4 µM | [11] 8.67 µM | [12] 2.15 µM | [13] 2.8 µM | [18] 2.59 µM

N#Cc1cc(C#N)c(Cl)nc1N
inactive: [3] > 10 µM | [4] > 10 µM | [5] > 10 µM | [16] > 10 µM | [6] > 10 µM | [7] > 10 µM | [9] > 10 µM | [17] > 10 µM | [10] > 10 µM | [11] > 10 µM | [12] > 10 µM | [13] > 10 µM | [14] > 10 µM | [15] > 10 µM | [18] > 10 µM

O=C(O)CNS(=O)(=O)c1ccc(NC(=O)c2ccccc2[N+](=O)[O-])cc1
inactive: [1] > 100 µM | [2] > 100 µM | [3] > 100 µM | [4] > 100 µM | [5] > 100 µM | [6] > 100 µM | [8] > 100 µM | [10] > 100 µM | [12] > 100 µM | [13] > 100 µM | [14] > 100 µM

COc1ccc(N[S+]([O-])c2ccc(Cl)cc2)cc1 (stereo unspecified)
inactive: [3] 50.5 µM | [4] > 100 µM | [16] 23.1 µM | [6] 10.5 µM | [7] 7.31 µM | [8] 94 µM | [9] 90.4 µM | [10] 4 µM | [11] 45.8 µM | [12] 24.5 µM | [13] 28.4 µM | [15] 13.4 µM | [18] 10.1 µM
active: [19] 0.248 µM

O=S1(=O)c2cc(S(=O)(=O)n3ccnc3)ccc2NC2=NCCCN21
inactive: [1] 28 µM | [2] 38.8 µM | [3] 21 µM | [4] 18.6 µM | [5] > 100 µM | [6] 40.7 µM | [7] 24.8 µM | [8] 26.7 µM | [9] 20.3 µM | [10] 41.2 µM | [11] 29.4 µM | [13] 20.2 µM | [14] 20.3 µM | [15] 20.7 µM

COc1cc(S(=O)(=O)Nc2ccc(-c3csc(N4C(=O)CSC4c4ccccc4O)n3)cc2)ccc1Cl (stereo unspecified)
inactive: [19] 31 µM | [2] > 100 µM | [3] 23.3 µM | [4] 24.5 µM | [5] 29.2 µM | [6] 46.3 µM | [7] 38.4 µM | [8] 64.3 µM | [9] 84.7 µM | [17] 38.1 µM | [10] 44.8 µM | [11] 72.6 µM | [12] 44.6 µM | [13] 58.7 µM | [14] > 100 µM | [15] 54.8 µM

O=c1[nH]c(=O)c2c3n(cc2[nH]1)CCCCC3
inactive: [1] > 100 µM | [2] > 100 µM | [3] > 100 µM | [4] > 100 µM | [5] > 100 µM | [16] > 100 µM | [6] > 100 µM | [7] > 100 µM | [8] > 100 µM | [17] > 100 µM | [10] > 100 µM | [11] > 100 µM | [13] > 100 µM | [14] > 100 µM | [15] > 100 µM | [18] > 100 µM

CCOC(=O)C1C2CCC(C2)C1(CCl)C(=O)OCC (stereo unspecified)
inactive: [1] > 100 µM | [2] > 100 µM | [3] > 100 µM | [4] > 100 µM | [5] 36.6 µM | [6] > 100 µM | [8] > 100 µM | [9] > 100 µM | [10] > 100 µM | [11] > 100 µM | [13] > 100 µM | [14] > 100 µM | [15] > 100 µM

CCCC(=O)/C=C/S/C=C/C(=O)CCC
inactive: [2] 2.86 µM | [4] 2.23 µM | [16] 4.67 µM | [6] 21.6 µM | [7] 15.3 µM | [8] 3.28 µM | [9] 4.09 µM | [10] 26.9 µM | [11] 23.9 µM | [12] 27.5 µM | [13] 4.26 µM | [14] 34.4 µM | [18] 4.09 µM

O=C1CC(c2ccccc2)n2cccc21 (stereo unspecified)
inactive: [1] > 100 µM | [2] > 100 µM | [3] > 100 µM | [4] > 100 µM | [5] > 100 µM | [16] > 100 µM | [6] > 100 µM | [7] > 100 µM | [8] > 100 µM | [9] > 100 µM | [17] > 100 µM | [10] > 100 µM | [11] > 100 µM | [12] > 100 µM | [13] > 100 µM | [14] > 100 µM | [15] > 100 µM | [18] > 100 µM

N#C/C(C(=O)Nc1ccc(Cl)cc1)=C(/N)N1CCCCC1
inactive: [1] > 100 µM | [19] > 100 µM | [2] > 100 µM | [3] > 100 µM | [4] > 100 µM | [5] > 100 µM | [6] 66.5 µM | [7] > 100 µM | [8] 85.1 µM | [9] > 100 µM | [17] > 100 µM | [11] 54 µM | [12] > 100 µM | [13] > 100 µM | [14] 72.6 µM | [15] > 100 µM | [18] > 100 µM

COc1ccc(N[S+]([O-])CCCc2ccccc2)cc1 (stereo unspecified)
inactive: [19] 4.16 µM | [3] > 100 µM | [4] > 100 µM | [16] > 100 µM | [6] 72.6 µM | [7] 34.8 µM | [9] 88.7 µM | [10] > 100 µM | [11] > 100 µM | [12] > 100 µM | [13] 44.8 µM | [15] 88.5 µM | [18] 14.7 µM

N#Cc1c(-c2ccc([N+](=O)[O-])cc2)c(C#N)c(=O)n(NS(=O)(=O)c2ccccc2)c1S
inactive: [1] 74.6 µM | [19] 15.5 µM | [2] 66.4 µM | [3] 16 µM | [4] 46.5 µM | [5] > 100 µM | [16] 20.8 µM | [6] 19.2 µM | [7] 25.3 µM | [8] 37 µM | [17] 28.8 µM | [10] 30 µM | [11] 44.8 µM | [12] 19.2 µM | [13] 10.8 µM | [14] 79.8 µM
